Laboratory results as given in BindingDB's records for doi:10.1016/s0960-894x(98)00660-x (Smithkline Beecham Research Unit, 1999).

Target: V-type proton ATPase (Gallus gallus)
Test: Compound was measured for the inhibition of bafilomycin-sensitive ATPase activity in partially purified membrane preparation from chicken osteoclast (cOC)

IC50 | Structure (SMILES)
27 nM | CO/C(=C\C=C\c1cc2cc(Cl)c(Cl)cc2[nH]1)C(=O)NC1CC(C)(C)N(C)C(C)(C)C1 [(2Z,4E)-5-(5,6-Dichloro-1H-indol-2-yl)-2-methoxy-penta-2,4-dienoic acid (1,2,2,6,6-pentamethyl-piperidin-4-yl)-amide]
2360 nM | CO/C(=C/C=C/c1cc2cc(Cl)c(Cl)cc2[nH]1)C(=O)NC1CC(C)(C)N(C)C(C)(C)C1 [TCMDC-139097]
663 nM | CO/C(=C\C=C/c1cc2cc(Cl)c(Cl)cc2[nH]1)C(=O)NC1CC(C)(C)N(C)C(C)(C)C1 [TCMDC-139106]
